Legend:
[1] = target: T1, KRASG12D (Homo sapiens, UniProt P01116, G12D); test: Bio-Biochem-PPI-HTRF Ras-SOS1 interaction assay (KRAS G12D); assay type: biochemical; conditions: 5 nM
T1 construct: made in house; host or cells: E. coli BL21 (DE3)
How it was run: (§1)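 GST-tagged K-Ras (wt or G12D) with anti-GST-Eu(K) donor was mixed with His-hSOS1 and anti-6His-XL665 acceptor in HEPES pH 7.4/NaCl/DTT/BSA/Igepal buffer, with compound in duplicate from 10 μM down to 0.01 μM. After about 10 min or longer, HTRF 665/620 nm ratio gave IC50.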

[2] = target: T2, KRASwt (Homo sapiens, UniProt P01116); test: Bio-Biochem-PPI-HTRF Ras-SOS1 interaction assay (KRAS wt); assay type: biochemical; conditions: 5 nM
T2 construct: made in house; host or cells: E. coli BL21 (DE3)
T2 sequence (P01116 1-188 isoform P01116-2): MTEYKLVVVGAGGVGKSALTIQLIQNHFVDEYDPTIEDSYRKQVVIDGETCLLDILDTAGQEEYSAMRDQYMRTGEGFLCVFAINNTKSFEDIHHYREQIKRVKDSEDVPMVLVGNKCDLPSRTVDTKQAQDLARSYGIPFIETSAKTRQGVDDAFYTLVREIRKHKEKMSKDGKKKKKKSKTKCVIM
How it was run: as §1

T1 sequence (P01116 1-188 isoform P01116-2 G12D): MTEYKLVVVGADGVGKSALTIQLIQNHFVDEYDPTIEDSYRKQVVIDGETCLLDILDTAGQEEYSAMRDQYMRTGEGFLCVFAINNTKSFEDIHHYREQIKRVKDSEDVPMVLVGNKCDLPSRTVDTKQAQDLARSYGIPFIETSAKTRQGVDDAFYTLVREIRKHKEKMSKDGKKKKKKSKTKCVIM

Nc1nc2c(-c3c(Cl)cc4c(N5CCCC6(CNCCO6)C5)nc(OC[C@@]56CCCN5C[C@H](F)C6)nc4c3F)ccc(F)c2s1 (stereo partly drawn) [compound 159, 4-(6-chloro-8-fluoro-2-(((2R,7aS)-2-fluorotetrahydro-1H-pyrrolizin-7a(5H)-yl)methoxy)-4-(1-oxa-4,8-diazaspiro[5.5]undecan-8-yl)quinazolin-7-yl)-7-fluorobenzo[d]thiazol-2-amine]
IC50 [1]: < 5 µM | IC50 [2]: < 5 µM

N#Cc1c(N)sc2c(F)ccc(-c3c(Cl)cc4c(N5CCC(CO)CC6(CNC6)C5)nc(OC[C@@]56CCCN5C[C@H](F)C6)nc4c3F)c12 (stereo partly drawn) [compound 214, 2-amino-4-(6-chloro-8-fluoro-2-(((2R,7aS)-2-fluorotetrahydro-1H-pyrrolizin-7a(5H)-yl)methoxy)-4-(9-(hydroxymethyl)-2,6-diazaspiro[3.6]decan-6-yl)quinazolin-7-yl)-7-fluorobenzo[b]thiophene-3-carbonitrile]
IC50 [1]: < 5 µM | IC50 [2]: < 5 µM

N#Cc1c(N)sc2c(F)ccc(-c3c(Cl)cc4c(N5CCCCC6(CN(C(=O)C7CCCN7)C6)C5)nc(OC[C@@]56CCCN5C[C@H](F)C6)nc4c3F)c12 (stereo partly drawn) [compound 314, 2-amino-4-(6-chloro-8-fluoro-2-(((2R,7aS)-2-fluorotetrahydro-1H-pyrrolizin-7a(5H)-yl)methoxy)-4-(2-prolyl-2,6-diazaspiro[3.6]decan-6-yl)quinazolin-7-yl)-7-fluorobenzo[b]thiophene-3-carbonitrile]
IC50 [1]: < 5 µM | IC50 [2]: < 5 µM

Cn1nccc1C(=O)N1CC2(CCCCN(c3nc(OC[C@@]45CCCN4C[C@H](F)C5)nc4c(F)c(-c5ccc(F)c6sc(N)c(C#N)c56)c(Cl)cc34)C2)C1 [compound 134, 2-amino-4-(6-chloro-8-fluoro-2-(((2R,7aS)-2-fluorotetrahydro-1H-pyrrolizin-7a(5H)-yl)methoxy)-4-(2-(1-methyl-1H-pyrazole-5-carbonyl)-2,6-diazaspiro[3.6]decan-6-yl)quinazolin-7-yl)-7-fluorobenzo[b]thiophene-3-carbonitrile]
IC50 [1]: < 5 µM | IC50 [2]: < 5 µM

CN(C)C/C=C/C(=O)N1CC2(CCCN(c3nc(OC[C@@]45CCCN4C[C@H](F)C5)nc4c(F)c(-c5ccc(F)c6sc(N)c(C#N)c56)c(Cl)cc34)C2)C1 [compound 189, 2-amino-4-(6-chloro-4-(2-((E)-4-(dimethylamino)but-2-enoyl)-2,6-diazaspiro[3.5]nonan-6-yl)-8-fluoro-2-(((2R,7aS)-2-fluorotetrahydro-1H-pyrrolizin-7a(5H)-yl)methoxy)quinazolin-7-yl)-7-fluorobenzo[b]thiophene-3-carbonitrile]
IC50 [1]: < 5 µM | IC50 [2]: < 5 µM

N#Cc1c(N)sc2c(F)ccc(-c3c(Cl)cc4c(N5CCCCC6(CN(C(=O)C7(F)CC7)C6)C5)nc(OC[C@@]56CCCN5C[C@H](F)C6)nc4c3F)c12 [compound 253, 2-amino-4-(6-chloro-8-fluoro-4-(2-(1-fluorocyclopropane-1-carbonyl)-2,6-diazaspiro[3.6]decan-6-yl)-2-(((2R,7aS)-2-fluorotetrahydro-1H-pyrrolizin-7a(5H)-yl)methoxy)quinazolin-7-yl)-7-fluorobenzo[b]thiophene-3-carbonitrile]
IC50 [1]: < 5 µM | IC50 [2]: < 5 µM

N#Cc1c(N)sc2c(F)ccc(-c3c(Cl)cc4c(N5CCC(F)(F)CC6(CN(C(=O)[C@@H]7CC7(F)F)C6)C5)nc(OC[C@@]56CCCN5C[C@H](F)C6)nc4c3F)c12 [compound 290, 2-amino-4-(6-chloro-4-(2-((S)-2,2-difluorocyclopropane-1-carbonyl)-9,9-difluoro-2,6-diazaspiro [3.6]decan-6-yl)-8-fluoro-2-(((2R,7aS)-2-fluorotetrahydro-1H-pyrrolizin-7a(5H)-yl)methoxy)quinazolin-7-yl)-7-fluorobenzo[b]thiophene-3-carbonitrile]
IC50 [1]: < 5 µM | IC50 [2]: < 5 µM

CC1(O)CCN(c2nc(OC[C@@]34CCCN3C[C@H](F)C4)nc3c(F)c(-c4ccc(F)c5sc(N)c(C#N)c45)c(Cl)cc23)CC2(CN(C(=O)[C@@H]3CC3(F)F)C2)C1 (stereo partly drawn) [compound 218, 2-amino-4-(6-chloro-4-(2-((S)-2,2-difluorocyclopropane-1-carbonyl)-9-hydroxy-9-methyl-2,6-diazaspiro [3.6]decan-6-yl)-8-fluoro-2-(((2R,7aS)-2-fluorotetrahydro-1H-pyrrolizin-7a(5H)-yl)methoxy)quinazolin-7-yl)-7-fluorobenzo[b]thiophene-3-carbonitrile]
IC50 [1]: < 5 µM | IC50 [2]: < 5 µM

CCN(C(=O)N1CC2(C1)CN(c1nc(OC[C@@]34CCCN3C[C@H](F)C4)nc3c(F)c(-c4ccc(F)c5sc(N)c(C#N)c45)c(Cl)cc13)CC(F)(F)O2)C(C)C [compound 153, 8-(7-(2-amino-3-cyano-7-fluorobenzo[b]thiophen-4-yl)-6-chloro-8-fluoro-2-(((2R,7aS)-2-fluorotetrahydro-1H-pyrrolizin-7a(5H)-yl)methoxy)quinazolin-4-yl)-N-ethyl-6,6-difluoro-N-isopropyl-5-oxa-2,8-diazaspiro[3.5]nonane-2-carboxamide]
IC50 [1]: < 5 µM | IC50 [2]: < 5 µM

C#Cc1c(F)ccc2cc(O)cc(-c3ccc4c(N5CCCC6(CNC6)C5)nc(OC[C@@]56CCCN5C[C@H](F)C6)nc4c3F)c12 [compound 161, 5-ethynyl-6-fluoro-4-(8-fluoro-2-(((2R,7aS)-2-fluorotetrahydro-1H-pyrrolizin-7a(5H)-yl)methoxy)-4-(2,6-diazaspiro[3.5]nonan-6-yl)quinazolin-7-yl)naphthalen-2-ol]
IC50 [1]: < 5 µM | IC50 [2]: < 5 µM

N#Cc1c(N)sc2c(F)ccc(-c3c(Cl)cc4c(N5CCCCC6(CN(C(=O)[C@H]7C[C@H]7F)C6)C5)nc(OC[C@@]56CCCN5C[C@H](F)C6)nc4c3F)c12 [compound 193, 2-amino-4-(6-chloro-8-fluoro-4-(2-((1R,2R)-2-fluorocyclopropane-1-carbonyl)-2,6-diazaspiro[3.6]decan-6-yl)-2-(((2R,7aS)-2-fluorotetrahydro-1H-pyrrolizin-7a(5H)-yl)methoxy)quinazolin-7-yl)-7-fluorobenzo[b]thiophene-3-carbonitrile]
IC50 [1]: < 5 µM | IC50 [2]: < 5 µM

N#Cc1c(N)sc2c(F)ccc(-c3c(Cl)cc4c(N5CCCCC6(CN(C(=O)C7CC7(F)F)C6)C5)nc(OC[C@@]56CCCN5C[C@H](F)C6)nc4c3F)c12 (stereo partly drawn) [compound 154, 2-amino-4-(6-chloro-4-(2-(2,2-difluorocyclopropane-1-carbonyl)-2,6-diazaspiro[3.6]decan-6-yl)-8-fluoro-2-(((2R,7aS)-2-fluorotetrahydro-1H-pyrrolizin-7a(5H)-yl)methoxy)quinazolin-7-yl)-7-fluorobenzo[b]thiophene-3-carbonitrile]
IC50 [1]: < 5 µM | IC50 [2]: < 5 µM

Nc1nc2c(-c3c(Cl)cc4c(N5CCC6(CC5)CN(C(=O)c5nc[nH]n5)C6)nc(OC[C@@]56CCCN5C[C@H](F)C6)nc4c3F)ccc(F)c2s1 [compound 248, (7-(7-(2-amino-7-fluorobenzo[d]thiazol-4-yl)-6-chloro-8-fluoro-2-(((2R,7aS)-2-fluorotetrahydro-1H-pyrrolizin-7a(5H)-yl)methoxy)quinazolin-4-yl)-2,7-diazaspiro[3.5]nonan-2-yl) (1H-1,2,4-triazol-3-yl)methanone]
IC50 [1]: < 5 µM | IC50 [2]: < 5 µM

N#Cc1c(N)sc2c(F)ccc(-c3c(Cl)cc4c(N5CCC6(CC5)CN(C(=O)C5CC5(F)F)CCO6)nc(OC[C@@]56CCCN5C[C@H](F)C6)nc4c3F)c12 (stereo partly drawn) [compound 171, 2-amino-4-(6-chloro-4-(4-(2,2-difluorocyclopropane-1-carbonyl)-1-oxa-4,9-diazaspiro[5.5]undecan-9-yl)-8-fluoro-2-(((2R,7aS)-2-fluorotetrahydro-1H-pyrrolizin-7a(5H)-yl)methoxy)quinazolin-7-yl)-7-fluorobenzo[b]thiophene-3-carbonitrile]
IC50 [1]: < 5 µM | IC50 [2]: < 5 µM

N#Cc1c(N)sc2c(F)ccc(-c3c(Cl)cc4c(N5CCCCC6(CN(C(=O)CN7CCOCC7=O)C6)C5)nc(OC[C@@]56CCCN5C[C@H](F)C6)nc4c3F)c12 [compound 326, 2-amino-4-(6-chloro-8-fluoro-2-(((2R,7aS)-2-fluorotetrahydro-1H-pyrrolizin-7a(5H)-yl)methoxy)-4-(2-(2-(3-oxomorpholino)acetyl)-2,6-diazaspiro[3.6]decan-6-yl)quinazolin-7-yl)-7-fluorobenzo[b]thiophene-3-carbonitrile]
IC50 [1]: < 5 µM | IC50 [2]: < 5 µM

N#Cc1c(N)sc2c(F)ccc(-c3c(Cl)cc4c(N5CCOC6(CN(C(=O)N7CC(C#N)C7)C6)C5)nc(OC[C@@]56CCCN5C[C@H](F)C6)nc4c3F)c12 [compound 257, 1-(8-(7-(2-amino-3-cyano-7-fluorobenzo[b]thiophen-4-yl)-6-chloro-8-fluoro-2-(((2R,7aS)-2-fluorotetrahydro-1H-pyrrolizin-7a(5H)-yl)methoxy)quinazolin-4-yl)-5-oxa-2,8-diazaspiro[3.5]nonane-2-carbonyl)azetidine-3-carbonitrile]
IC50 [1]: < 5 µM | IC50 [2]: < 5 µM

N#Cc1c(N)sc2c(F)ccc(-c3c(Cl)cc4c(N5CCCCC6(CN(C(=O)CC7CCC7)C6)C5)nc(OC[C@@]56CCCN5C[C@H](F)C6)nc4c3F)c12 [compound 320, 2-amino-4-(6-chloro-4-(2-(2-cyclobutylacetyl)-2,6-diazaspiro[3.6]decan-6-yl)-8-fluoro-2-(((2R,7aS)-2-fluorotetrahydro-1H-pyrrolizin-7a(5H)-yl)methoxy)quinazolin-7-yl)-7-fluorobenzo[b] thiophene-3-carbonitrile]
IC50 [1]: < 5 µM | IC50 [2]: < 5 µM

— patent publication US20240109918A1, “HETEROCYCLIC COMPOUNDS AND USES THEREOF” (Kumquat Biosciences Inc., priority 2022, published 2024)
